According to US7355001B2, “Organic anion transport protein TCH229” (Takeda Pharmaceutical Company Limited, priority 2002, dated 2008):

Columns and labels:
human TCH229 [1] = assay: Expression of human TCH229 gene in HRCE stimulated with stimulants (TaqMan PCR); assay type: cell-based; details: stimulant 10 ng/ml, 0.5-8 hours after addition
Procedure: (§1) (2) Preparation of cDNA from Normal Human Cells Stimulated with Various Stimulants a) Renal proximal tubular epithelial cell (RPTEC) and human renal cortical epithelial cell (HRCE) (both available from Cambrex BioScience Walkersvill) were plated on a 24-well collagen-coated plate in 1×10^5 cells/well and then cultured overnight, and after the medium was replaced by […] (T3)-free Bullet Kit REGM (BIO WHITTAKER), the cells were cultured for additional 30 minutes. b) As stimulants, TGF-β1 (Wako Pure Chemical Industries, Ltd.), TNF-α (Genzyme), IL-1β (Genzyme), IL-6 (Genzyme) and PMA (Wako Pure Chemical Industries, Ltd.) were used. A solution was prepared by diluting each of these 5 stimulants at the final concentration of 10 ng/ml with T3-free Bullet Kit REGM (BIO WHITTAKER). c) Just after the culture supernatants of the RPTEC and HRCE in the above item a) were removed, the solution prepared in the above item b) was added in a volume of 500 μl/well, and the cells were cultured. As the control, a mixture of the 5 stimulants dissolved in a solvent was diluted at the same ratio as the stimulants with T3-free Bullet Kit REGM (BIO WHITTAKER) to prepare a solution, and 500 μl of the solution was added to each well of RPTEC and HRCE, and the cells were cultured. d) 0.5, 1, 2, 4, 6 and 8 hours after addition of the stimulants, the cells were recovered respectively, and total RNA was prepared by using RNeasy Mini Kit (Quiagen). The total RNA thus prepared was subjected to reverse transcription reaction using TaqMan Reverse Transcription Reagents (manufactured by Applied Biosystems, Inc.) to prepare the cDNA. (3) Analysis of Expression of Human TCH229 Gene in Commercially Available Normal Human Cells
(§2) The expression level (copy number) of human TCH229 in the cDNAs prepared from the normal human cells and the PRTEC and HRCE stimulated with the stimulants was measured by TaqMan PCR with the 2 primer DNAs used in Example 4 (that is, primer TMF (SEQ ID NO: 19) and primer TMR (SEQ ID NO: 20)) and TaqMan probe P1 (SEQ ID NO: 21). For the cDNAs prepared respectively from the normal human cells and the PRTEC and HRCE stimulated with the stimulants, the expression level (copy number) of ribosomal RNA (18S) was assayed by using Eukaryotic 18S rRNA Pre-Developed TaqMan Assay Reagents (manufactured by Applied Biosystems, Inc.), and the expression level (copy number) of human glyceraldehyde-3-phosphate dehydrogenase (GAPDH) was also assayed by using human GAPD (GAPDH) (manufactured by Applied Biosystems, Inc.). […]

human TCH229 [2] = assay: Expression of human TCH229 gene in RPTEC stimulated with stimulants (TaqMan PCR); assay type: cell-based; details: stimulant 10 ng/ml, 0.5-8 hours after addition
Procedure: as §1, §2

| Compound | fluctuation of expression of human TCH229 (mRNA, relative to human GAPDH) as compared with the control (human TCH229 [1]) | fluctuation of expression of human TCH229 (mRNA, relative to human GAPDH) as compared with the control (human TCH229 [2]) |
| --- | --- | --- |
| CCCCCCCCCCCCCC(=O)O[C@@H]1[C@@H](C)[C@@]2(O)[C@@H](C=C(CO)C[C@]3(O)C(=O)C(C)=C[C@@H]23)[C@@H]2C(C)(C)[C@]12OC(C)=O [PMA] | decreased depending on culture time | decreased depending on culture time |
| TNF-α | decreased depending on culture time | decreased depending on culture time |
| TGF-β1: stimulant, TGF-β1 (Wako Pure Chemical Industries, Ltd.) | decreased depending on culture time | decreased depending on culture time |
| IL-1β: stimulant, IL-1β (Genzyme) | decreased depending on culture time | decreased depending on culture time |
